According to patent publication US11702404B2, “GLP-1R modulating compounds” (priority 2019, dated 2023):
Like-named read-outs stand apart in the source and are kept apart here.

Key:
GLP-1R = GLP-1R (Homo sapiens, UniProt P43220); test: GLP-1R activation: cAMP increase in CHO cells stably expressing GLP-1R; assay type: cell-based; conditions: read-out: EC50
[1] = Microsomal stability, human liver microsomes (predicted hepatic clearance); conditions: predicted from in vitro microsomal stability data
[2] = cAMP increase, CHO cells stably expressing GLP-1R, 10 point dose response, 30 minutes incubation

GLP-1R, sequence (P43220 24-463): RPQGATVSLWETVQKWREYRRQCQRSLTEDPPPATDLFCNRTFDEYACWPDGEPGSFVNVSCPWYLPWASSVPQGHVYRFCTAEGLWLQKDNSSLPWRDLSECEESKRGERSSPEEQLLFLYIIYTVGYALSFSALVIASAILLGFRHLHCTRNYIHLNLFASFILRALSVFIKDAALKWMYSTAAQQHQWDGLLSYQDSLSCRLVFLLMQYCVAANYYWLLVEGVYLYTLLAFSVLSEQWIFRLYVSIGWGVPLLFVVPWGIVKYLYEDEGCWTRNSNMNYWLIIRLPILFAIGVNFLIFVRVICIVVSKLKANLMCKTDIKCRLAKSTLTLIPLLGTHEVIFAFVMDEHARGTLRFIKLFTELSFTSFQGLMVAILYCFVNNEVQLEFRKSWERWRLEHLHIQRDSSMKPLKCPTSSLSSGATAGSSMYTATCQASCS

| Structure (SMILES) | EC50 (GLP-1R; [2]) [nM] | Predicted Hepatic Clearance (Pred. Cl.) [1] [mL/min/kg] | EC50 (GLP-1R) [nM] |
| --- | --- | --- | --- |
| COCCn1c(Cc2ccc(-c3nccc(OCc4ccc(C#N)cc4F)n3)cc2F)nc2ccc(C(=O)O)cc21 [Example 25, 2-{[4-[4-[(4-cyano-2-fluoro-phenyl)methoxy]pyrimidin-2-yl]-2-fluoro-phenyl]methyl}-3-(2-methoxyethyl)benzimidazole-5-carboxylic acid] | 25.9 | 7.33 | – |
| N#Cc1cc(F)c(COc2ncc(F)c(-c3cc(F)c(Cc4nc5c(F)cc(C(=O)O)cc5n4C[C@@H]4CCO4)cc3F)n2)cc1F [Example 885] | 0.22 | 9.17 | – |
| COCCn1c(Cc2ccc(-n3ccc(OCc4ccccc4)n3)cc2F)nc2ccc(C(=O)O)cc21 [Example 89, 2-(4-(3-(benzyloxy)-1H-pyrazol-1-yl)-2-fluorobenzyl)-1-(2-methoxyethyl)-1H-benzo[d]imidazole-6-carboxylic acid] | 1650 | 8.83 | – |
| N#Cc1ccc(COc2cccc(-c3ccc(Cc4nc5c(F)cc(C(=O)O)cc5n4Cc4ccon4)c(F)c3)n2)c(F)c1 [Example 585, 2-(4-(6-((4-cyano-2-fluorobenzyl)oxy)pyridin-2-yl)-2-fluorobenzyl)-4-fluoro-1-(isoxazol-3-ylmethyl)-1H-benzo[d]imidazole-6-carboxylic acid] | 0.81 | 2.33 | – |
| O=C(O)c1ccc2nc(Cc3ccc(-c4cccc(OCc5ccc(C(F)(F)F)cc5F)n4)cc3F)n(C[C@@H]3CCO3)c2c1 [Example 667] | 0.1 | 6 | – |
| COCCn1c(Cc2ccc(-c3cccc(OCc4ccc(C#N)cc4F)n3)cc2F)nc2ccc(C(=O)O)c(Cl)c21 [Example 366, 7-chloro-2-(4-(6-((4-cyano-2-fluorobenzyl)oxy)pyridin-2-yl)-2-fluorobenzyl)-1-(2-methoxyethyl)-1H-benzo[d]imidazole-6-carboxylic acid] | 20.8 | 5.5 | – |
| N#Cc1ccc(COc2cccc(-c3cc(F)c(Cc4nc5cc(F)c(C(=O)O)cc5n4C[C@@H]4CCO4)cc3F)n2)c(F)c1 [Example 219, (S)-2-(4-(6-((4-cyano-2-fluorobenzyl)oxy)pyridin-2-yl)-2,5-difluorobenzyl)-5-fluoro-1-(oxetan-2-ylmethyl)-1H-benzo[d]imidazole-6-carboxylic acid] | 0.69 | 2.83 | – |
| N#Cc1ccc(COc2cccc(-c3cc(F)c(Cc4nc5ccc(C(=O)O)cc5n4CC45CCN(CC4)C5)cc3F)n2)c(F)c1 [Example 742] | 54.8 | 1.83 | – |
| COCCNC(=O)C(Cn1c(Cc2ccc(-c3cccc(OCc4ccc(C#N)cc4F)n3)cc2F)nc2ccc(C(=O)O)cc21)OC (single isomer, unassigned) [Example 335, 2-(4-(6-((4-cyano-2-fluorobenzyl)oxy)pyridin-2-yl)-2-fluorobenzyl)-1-(2-methoxy-3-((2-methoxyethyl)amino)-3-oxopropyl)-1H-benzo[d]imidazole-6-carboxylic acid] | 139 | 4.83 | – |
| CC(C)(Cn1c(Cc2cc(F)c(-c3cccc(OCc4ccc(C#N)cc4F)n3)cc2F)nc2ccc(C(=O)O)cc21)OC(F)F [Example 721] | 1.31 | 7.83 | – |
| Cn1ncnc1Cn1c(Cc2cc(F)c(-c3cccc(OCc4ccc(C#N)cc4F)n3)cc2F)nc2ccc(C(=O)O)cc21 [Example 578, 2-(4-(6-((4-cyano-2-fluorobenzyl)oxy)pyridin-2-yl)-2,5-difluorobenzyl)-1-((1-methyl-1H-1,2,4-triazol-5-yl)methyl)-1H-benzo[d]imidazole-6-carboxylic acid] | 13.8 | 4.67 | – |
| COCCn1c(Cc2cc(F)c(-c3cccc(OCc4cccc(-c5ccccn5)c4)n3)cc2F)nc2ccc(C(=O)O)cc21 [Example 908] | 6.68 | 5.17 | – |
| N#Cc1ccc(COc2cccc(-c3cc(=O)n(Cc4nc5ccc(C(=O)O)cc5n4CC45CC(CO4)C5)cc3F)n2)c(F)c1 [Example 683] | 2.41 | 6.5 | – |
| N#Cc1ccc(COc2cccc(-c3cc(F)c(Cc4nc5ccc(C(=O)O)cc5n4[C@H]4CCC[C@@]45CCCO5)cc3F)n2)c(F)c1 [Example 710] | 1.45 | 11 | – |
| COCCn1c(Cc2ccc(-c3ccc(N)c(OCc4ccc(C#N)cc4F)c3)cc2F)nc2ccc(C(=O)O)cc21 [Example 82, 2-((4′-amino-3′-((4-cyano-2-fluorobenzyl)oxy)-3-fluoro-[1,1′-biphenyl]-4-yl)methyl)-1-(2-methoxyethyl)-1H-benzo[d]imidazole-6-carboxylic acid] | 264 | 3.67 | – |
| CC(=O)N1CC2CC1(Cn1c(Cc3cc(F)c(-c4cccc(OCc5ccc(C#N)cc5F)n4)cc3F)nc3ccc(C(=O)O)cc31)C2 [Example 849, 1-((2-acetyl-2-azabicyclo[2.1.1]hexan-1-yl)methyl)-2-(4-(6-((4-cyano-2-fluorobenzyl)oxy)pyridin-2-yl)-2,5-difluorobenzyl)-1H-benzo[d]imidazole-6-carboxylic acid] | – | 5.33 | 14.2 |
| COCCn1c(Cc2ccc(-c3cccc(OCc4ccc(C#N)cc4F)n3)c3c2COC3)nc2ccc(C(=O)O)cc21 [Example 903, 2-((7-(6-((4-cyano-2-fluorobenzyl)oxy)pyridin-2-yl)-1,3-dihydroisobenzofuran-4-yl)methyl)-1-(2-methoxyethyl)-1H-benzo[d]imidazole-6-carboxylic acid] | 107 | 1.83 | – |
| C[C@@]1(Cn2c(Cc3cc(F)c(-c4cccc(OCc5ccc(C#N)cc5F)n4)cc3F)nc3ccc(C(=O)O)cc32)CCCO1 (racemic) [Example 548, 2-(4-(6-((4-cyano-2-fluorobenzyl)oxy)pyridin-2-yl)-2,5-difluorobenzyl)-1-((2-methyltetrahydrofuran-2-yl)methyl)-1H-benzo[d]imidazole-carboxylic acid] | 9.01 | 7.5 | – |
| COCCn1c(Cc2ccc(-c3cccc(OCc4cc(F)c(Cl)cc4OC)n3)cc2F)nc2ccc(C(=O)O)cc21 [Example 481, 2-(4-(6-((4-chloro-5-fluoro-2-methoxybenzyl)oxy)pyridin-2-yl)-2-fluorobenzyl)-1-(2-methoxyethyl)-1H-benzo[d]imidazole-6-carboxylic acid] | 2.9 | <1.83 | – |
| COCCn1c(Cc2ccc(-c3cccc(OCc4ccc(C#N)cc4F)n3)cc2F)nc2cc(F)c(C(=O)O)cc21 [Example 207, 2-(4-(6-((4-cyano-2-fluorobenzyl)oxy)pyridin-2-yl)-2-fluorobenzyl)-5-fluoro-1-(2-methoxyethyl)-1H-benzo[d]imidazole-6-carboxylic acid] | 35.2 | 6 | – |
| N#Cc1ccc(COc2cccc(-c3ccc(Cc4nc5ccc(C(=O)O)cc5n4CC4CCC4)c(F)c3)n2)c(F)c1 [Example 382, 2-(4-(6-((4-cyano-2-fluorobenzyl)oxy)pyridin-2-yl)-2-fluorobenzyl)-1-(cyclobutylmethyl)-1H-benzo[d]imidazole-6-carboxylic acid] | 8.7 | <1.83 | – |
| N#Cc1ccc(COc2cccc(-c3cc(F)c(Cc4nc5ccc(C(=O)O)nc5n4CC4(CF)CC4)cc3F)n2)c(F)c1 [Example 440, 2-(4-(6-((4-cyano-2-fluorobenzyl)oxy)pyridin-2-yl)-2,5-difluorobenzyl)-3-((1-(fluoromethyl)cyclopropyl)methyl)-3H-imidazo[4,5-b]pyridine-5-carboxylic acid] | 2.12 | 5 | – |
| N#Cc1ccc(COc2cccc(-c3ccc(Cc4nc5ccc(C(=O)O)cc5n4CC4(n5cncn5)CC4)c(F)c3)n2)c(F)c1 [Example 313, 1-((1-(1H-1,2,4-triazol-1-yl)cyclopropyl)methyl)-2-(4-(6-((4-cyano-2-fluorobenzyl)oxy)pyridin-2-yl)-2-fluorobenzyl)-1H-benzo[d]imidazole-6-carboxylic acid] | 3.25 | 7.17 | – |
| COCCn1c(Cc2ccc(-c3cccc(OCc4ccc(C#N)cc4F)n3)cc2-c2cccc([N+](=O)[O-])c2)nc2ccc(C(=O)O)cc21 [Example 187, 2-((5-(6-((4-cyano-2-fluorobenzyl)oxy)pyridin-2-yl)-3′-nitro-[1,1′-biphenyl]-2-yl)methyl)-1-(2-methoxyethyl)-1H-benzo[d]imidazole-6-carboxylic acid] | 723 | 14.8 | – |
| CC1(C)CC(Cn2c(Cc3ccc(-c4cccc(OCc5ccc(C#N)cc5F)n4)cc3F)nc3ccc(C(=O)O)cc32)O1 (single isomer, unassigned) [Example 904, 2-(4-(6-((4-cyano-2-fluorobenzyl)oxy)pyridin-2-yl)-2-fluorobenzyl)-1-((4,4-dimethyloxetan-2-yl)methyl)-1H-benzo[d]imidazole-6-carboxylic acid] | 311 | 11.2 | – |
| O=C(O)c1ccc2nc(Cc3cc(F)c(-c4ccnc(OCc5ccc(C(F)(F)F)cc5F)n4)cc3F)n(C[C@@H]3CCO3)c2c1 [Example 785] | 0.05 | 1.83 | – |
| N#Cc1ccc(COc2cccc(-c3ccc(Cc4nc5ccc(C(=O)O)cc5n4C[C@H]4CCS4(=O)=O)cc3)n2)c(F)c1 (racemic) [Example 475, 2-(4-(6-((4-cyano-2-fluorobenzyl)oxy)pyridin-2-yl)benzyl)-1-((1,1-dioxidothietan-2-yl)methyl)-1H-benzo[d]imidazole-6-carboxylic acid] | 325 | 2 | – |
| N#Cc1ccc(COc2cccc(-c3cc(F)c(Cc4nc5ccc(C(=O)O)cc5n4CC4CCCCO4)cc3F)n2)c(F)c1 (centres unmarked) [Example 640] | 16.6 | 8.5 | – |
